According to publication PMC10004634 (PLOS ONE, 2023):
Read-outs that look alike come from different tables or passages of the source.

What was measured:
AURKA = molecular target: T1, AURKA (Homo sapiens, UniProt O14965); assay: biochemical; set-up: KINOMEscan scanMAX competition binding, DNA-tagged kinases, qPCR read-out, percent control at 300 nM
T1 sequence (O14965 1-403): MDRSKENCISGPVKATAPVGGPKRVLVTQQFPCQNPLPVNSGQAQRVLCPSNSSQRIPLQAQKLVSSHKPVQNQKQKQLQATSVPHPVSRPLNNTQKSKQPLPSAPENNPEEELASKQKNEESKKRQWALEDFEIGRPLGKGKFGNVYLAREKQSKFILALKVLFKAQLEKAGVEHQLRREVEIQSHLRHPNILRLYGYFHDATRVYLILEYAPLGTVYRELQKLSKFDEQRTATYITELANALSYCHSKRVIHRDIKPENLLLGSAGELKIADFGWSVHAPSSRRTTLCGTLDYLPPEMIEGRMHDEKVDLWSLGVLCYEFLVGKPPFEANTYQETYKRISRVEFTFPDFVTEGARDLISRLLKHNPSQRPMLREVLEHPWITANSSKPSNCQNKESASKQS

PIK3C2G = molecular target: T2, PIK3C2G (Homo sapiens, UniProt O75747); assay: biochemical; set-up: KINOMEscan scanMAX competition binding, DNA-tagged kinases, qPCR read-out, percent control at 300 nM
T2 sequence (O75747 1-1486): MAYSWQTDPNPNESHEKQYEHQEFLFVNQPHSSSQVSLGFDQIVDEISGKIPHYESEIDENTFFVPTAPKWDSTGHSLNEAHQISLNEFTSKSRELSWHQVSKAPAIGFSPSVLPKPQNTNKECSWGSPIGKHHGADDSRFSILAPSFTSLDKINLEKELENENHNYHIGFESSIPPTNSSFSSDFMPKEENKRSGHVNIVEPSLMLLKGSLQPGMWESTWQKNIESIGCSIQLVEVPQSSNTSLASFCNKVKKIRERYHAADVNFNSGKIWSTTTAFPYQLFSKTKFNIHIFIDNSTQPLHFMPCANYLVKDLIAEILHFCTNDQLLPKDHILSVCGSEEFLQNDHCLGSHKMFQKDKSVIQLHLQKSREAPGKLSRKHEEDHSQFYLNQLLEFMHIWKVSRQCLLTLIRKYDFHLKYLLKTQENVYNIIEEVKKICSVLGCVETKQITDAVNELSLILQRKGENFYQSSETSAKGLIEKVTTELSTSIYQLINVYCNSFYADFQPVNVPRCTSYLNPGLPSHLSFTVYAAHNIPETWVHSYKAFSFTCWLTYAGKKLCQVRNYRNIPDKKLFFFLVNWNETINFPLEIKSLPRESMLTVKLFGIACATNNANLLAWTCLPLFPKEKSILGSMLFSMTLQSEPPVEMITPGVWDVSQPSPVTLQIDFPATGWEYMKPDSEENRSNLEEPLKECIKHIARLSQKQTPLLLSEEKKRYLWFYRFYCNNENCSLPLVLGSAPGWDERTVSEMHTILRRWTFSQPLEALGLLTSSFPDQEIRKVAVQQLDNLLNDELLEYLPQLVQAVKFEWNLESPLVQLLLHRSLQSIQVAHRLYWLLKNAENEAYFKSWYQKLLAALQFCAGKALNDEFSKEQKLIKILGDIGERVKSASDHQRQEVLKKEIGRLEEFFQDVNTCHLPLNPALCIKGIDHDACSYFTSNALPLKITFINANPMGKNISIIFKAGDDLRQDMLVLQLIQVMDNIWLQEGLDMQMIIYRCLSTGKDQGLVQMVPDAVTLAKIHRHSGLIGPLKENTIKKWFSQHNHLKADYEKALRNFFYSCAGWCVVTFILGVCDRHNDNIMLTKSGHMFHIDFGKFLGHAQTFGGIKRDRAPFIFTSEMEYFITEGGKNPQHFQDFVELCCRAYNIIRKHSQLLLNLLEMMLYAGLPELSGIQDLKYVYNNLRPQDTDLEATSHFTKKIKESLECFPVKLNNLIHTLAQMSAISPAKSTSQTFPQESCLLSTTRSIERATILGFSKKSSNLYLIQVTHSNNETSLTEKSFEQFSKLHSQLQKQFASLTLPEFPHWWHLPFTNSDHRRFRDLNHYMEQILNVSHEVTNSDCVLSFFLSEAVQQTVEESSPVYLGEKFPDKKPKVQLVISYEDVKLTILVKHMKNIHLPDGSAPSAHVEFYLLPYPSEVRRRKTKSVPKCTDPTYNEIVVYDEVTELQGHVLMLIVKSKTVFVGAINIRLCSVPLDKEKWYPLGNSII

[1] = read-out: Percent control / Acalabrutinib
[2] = read-out: Percent control / Ibrutinib
[3] = read-out: Percent control / Zanubrutinib

CC#CC(=O)N1CCC[C@H]1c1nc(-c2ccc(C(=O)Nc3ccccn3)cc2)c2c(N)nccn12 [Acalabrutinib]
remaining binding at 0.3 µM (AURKA; [1]): 96%
remaining binding at 0.3 µM (PIK3C2G; [1]): 74%

C=CC(=O)N1CCC[C@@H](n2nc(-c3ccc(Oc4ccccc4)cc3)c3c(N)ncnc32)C1 [Ibrutinib]
remaining binding at 0.3 µM (AURKA; [2]): 94%
remaining binding at 0.3 µM (PIK3C2G; [2]): 97%

CC#CC(=O)N1CC[C@@H](n2c(=O)n(-c3ccc(Oc4ccccc4)cc3)c3c(N)ncnc32)C1 [Tirabrutinib]
remaining binding at 0.3 µM (PIK3C2G; read-out: Percent control / Tirabrutinib): 98%

C=CC(=O)N1CCC([C@@H]2CCNc3c(C(N)=O)c(-c4ccc(Oc5ccccc5)cc4)nn32)CC1 [Zanubrutinib]
remaining binding at 0.3 µM (AURKA; [3]): 92%
remaining binding at 0.3 µM (PIK3C2G; [3]): 74%
